Like-named read-outs stand apart in the source and are kept apart here.
How the values were obtained:
[1] = tested on: human neuroblastoma (SK-N-SH); assay: cell viability (neutral red, Almar Blue, Hoechst dye), neuroblastoma SK-N-SH; type: cell-based; details: Homo sapiens, SK-N-SH; Table 1A
[2] = tested on: human neuroblastoma (SH-SY5T); assay: cell viability, neuroblastoma SH-SY5T; type: cell-based; details: for IC50: Homo sapiens
Description: The effect of paroxetine on primary tissue cultures was also evaluated. […] The viability of the cells after treatment with paroxetine was determined by neutral red (NR) technology 24 hr. post treatment.
(§1) Cyclic antidepressants at varying concentrations (between 10PM and 100 μM) was applied to neuroblastoma SH-SY5T, 3LL lung carcinoma, prostate (LN-CapAp), melanoma B16, and cell viability was determined as described above.

[3] = tested on: rat glioblastoma (C6); assay: cell viability, glioma C6; type: cell-based; details: Rattus norvegicus; Table 1A
[4] = tested on: mouse melanoma (B-16); assay: cell viability, melanoma B16; type: cell-based; details: Mus musculus
Description: as §1

[5] = tested on: human prostate (LN-CapAp); assay: cell viability, prostate LN-Cap; type: cell-based; details: Homo sapiens, LNCaP
Description: The effect of trifluoperazine and flupentixol was studied in two cell-lines of human prostate cancer: androgen dependent (LN-Cap) and androgen independent (PC-3).
as §1

[6] = tested on: human breast (MCF7); assay: cell viability, breast MCF7; type: cell-based; details: Table 1A
[7] = tested on: Colon Ht-29; assay: cell viability, colon Ht-29; type: cell-based; details: Homo sapiens, Table 1A
[8] = tested on: mouse-selected embryo, neuronal culture; assay: primary tissue culture, neuronal; type: cell-based; details: data not shown
[9] = tested on: rat new born myocytic culture; assay: primary tissue culture, myocytic; type: cell-based; details: data not shown
[10] = tested on: Neuroblastoma cell line (SK-NSH); assay: apoptosis by flow cytometry of propidium iodide stained cells; type: cell-based, human; details: after 24 and 48 hours at 20 μM and higher; FIG. 7
Description: The percentage of apoptosis of the cells was determined by flow cytometry of propidium iodide stained cells using a fluorescence-activated cell sorter (FACScan) (Becton and Dickenson, Heidelberg, Calif.) equipped with an argon ion laser (an excitation wavelength, […]) and a doublet discrimination module (DDM). Lysis II (BD) software was used for data acquisition.

[11] = tested on: p53 mutant; assay: p53 mutant expression, western blotting in glioma C6; type: cell-based, rat; details: 60 μM, FIG. 8
[12] = tested on: HaCat keratinocytes; assay: keratinocyte viability, Neutral red, HaCat; type: cell-based, human; details: for IC50: Homo sapiens, HaCaT
Description: (§2) The drugs were administered at concentrations within the range of 5-100 μM and cell viability was measured 24 hr post-administration by Neutral red staining. The efficiency of the agents against viability of the cell lines was evaluated also by comparison with two commonly used anticancer agents (Doxorubicin and 5-fluorouracil (5-FU)) at equimolar concentrations.

[13] = tested on: HaCat I5 keratinocytes; assay: keratinocyte viability, Neutral red, HaCat I5; type: cell-based, human
Description: as §2

[14] = tested on: different cell-lines; assay: mean IC50 over cell lines and therapeutic index
[15] = tested on: mouse lung sarcoma (3LL); assay: cell viability, lung 3LL; type: cell-based; details: Mus musculus; Table 1B; read-out: Cell viability IC50 Lungs Sarcoma 3LL
Description: In another experiment the effect of clotiapine at the same concentrations on the viability of mouse lung carcinoma (3LL) cells was determined.
as §1

[16] = tested on: mouse melanoma B16 MDR cells; assay: cell viability, melanoma B16 MDR; type: cell-based
[17] = tested on: mouse Lewis lung carcinoma (3LL); assay: in vivo effect on Lewis lung carcinoma (3LL) in mice; details: 3LL inoculated C57 mice, i.p. daily, thioridazine 15 mg/kg, others 30 mg/kg
Description: Female C57 black mice aged 4 weeks were used in order to evaluate the in vivo effect of cyclic psychotropic agents on tumor cells. In particular, animals were divided into 5 groups (6-8 mice each). Animals were inoculated with mouse Lewis lung carcinoma (3LL, 0.5 million each) by i.v. injection to the tail vein and then treated by i.p. injection daily for 3 weeks with the following different agents
(5) Paroxetine (30 mg/kg).
During the treatment period animals were inspected daily and their body weight registered twice a week. […] After the four weeks of treatment the mice were sacrificed and their lungs dissected and weighted.

[18] = tested on: B16 melanoma cells; assay: sensitization to doxorubicin, B16 melanoma cells; type: cell-based, mouse; details: B16 melanoma cells, FIG. 6D
[19] = tested on: HaCat II-4RT keratinocytes; assay: keratinocyte viability, Neutral red, HaCat II4; type: cell-based; details: Homo sapiens
Description: as §2

[20] = Homo sapiens, HaCaT, mean of the determinations, read-out: IC50 HaCat I5 ME
[21] = Homo sapiens, HaCaT, single determinations, read-out: IC50 HaCat I5

`OCCN1CCN(CCCN2c3ccccc3Sc3ccc(Cl)cc32)CC1` [Perphenazine] showed an IC50 [1] of 21 µM, an IC50 ([2]; Table 1A, read-out: Viability IC50 Neuroblastoma SH-SY5T) of 15 µM and an IC50 [3] of 22 µM. The IC50 ([4]; Table 1A, read-out: Viability IC50 Melanoma B16) was 23 µM, the IC50 ([5]; Table 1A, read-out: Viability IC50 Prostate LN-Cap) was 18 µM and the IC50 [6] was 21 µM. For the same compound, the IC50 [7] was 22 µM, the IC50 [8] was 60 µM and the IC50 [9] was 35 to 55 µM. The “apoptosis (in words)” value [10] was “mortal and dramatic apoptosis”, the “mean decrease in expression of p53 mutant” value [11] was 30% and the IC50 ([12]; mean of the determinations, read-out: IC50 HaCat ME) was 24 µM. For the same compound, the IC50 ([12]; single determinations, read-out: IC50 HaCat) was 24 µM, the IC50 [13, 20] was 26 µM and the IC50 [13, 21] was 30 µM. For the same compound, the IC50 ([13]; single determinations, read-out: IC50 HaCat I5) was 22 µM and the IC50 ([14]; read-out: IC50 Mean ± SD) was 20 ± 2.7 µM.

With `Fc1ccc([C@@H]2CCNC[C@H]2COc2ccc3c(c2)OCO3)cc1` [Paroxetine] the “sensitivity of neuroblastoma cells compared to primary tissue (viability)” value ([2]; 10 μM to 100 μM, neutral red, 24 hr post treatment, vs primary mouse brain and selected neurons, FIG. 1) was “increased sensitivity”, the IC50 ([2]; Table 1B, read-out: Cell viability IC50 Neuroblastoma SH-SY5T) was 15 µM and the IC50 ([4]; Example 9, read-out: IC50 levels, wild type B16 mouse melanoma) was 15 to 20 µM. For the same compound, the IC50 ([4]; Table 1B, read-out: Cell viability IC50 Melanoma 16B) was 12 µM, the IC50 ([5]; Table 1B, read-out: Cell viability IC50 Prostate LN-Cap) was 16 µM and the IC50 [15] was less than 10 µM. The IC50 ([16]; B16, Example 9, FIG. 9, read-out: IC50 levels, transformed (MDR) B16 melanoma) was 15 to 20 µM, the IC50 ([16]; Table 1B, read-out: Cell viability IC50 Melanoma B16 MDR) was 11 µM and the “survival rate during four weeks of treatment” value [17] was 5/6. For the same compound, the “lungs weight / tumor size compared to control group” value ([17]; FIG. 5) was “effective in reducing tumor size”, the “potentiation of doxorubicin (in words)” value [18] was “same effect” and the “cell viability HaCat (in words)” value ([12]; 5-100 μM, 24 hr, Neutral red, FIG. 13A, 15A) was “effective in reducing cell viability”. For the same compound, the “cell viability HaCat I5 (in words)” value ([13]; 5-100 μM, 24 hr, Neutral red, FIG. 13B, 15B) was “effective in reducing cell viability”, the IC50 [13, 20] was 21 µM and the IC50 [13, 21] was 21 µM. It also gave an IC50 [19] of 12 µM and an IC50 ([14]; read-out: IC50 Mean +/− SD) of 12.4 µM.

From patent publication US20040029860A1, “Anti-proliferative drugs” (priority 2000, published 2004)
